Source: PubChem BioAssay (NCI)
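96-well plates; 48 h exposure; 5 concentrations. Endpoints by linear interpolation between flanking doses. Not reached: highest tested concentration assigned. GI50: concentration for 50% inhibition of growth. TGI: concentration producing complete growth inhibition.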

What was measured:
Test in all cases: NCI anticancer screen, dose series, 48 h
786-0 renal = tested on: 786-0 renal
A498 renal = tested on: A498 renal
A549 NSCLC = tested on: A549 NSCLC
ACHN renal = tested on: ACHN renal
BT-549 breast = tested on: BT-549 breast
CAKI-1 renal = tested on: CAKI-1 renal
CCRF-CEM leukemia = tested on: CCRF-CEM leukemia
COLO 205 colon = tested on: COLO 205 colon
DU-145 prostate = tested on: DU-145 prostate
EKVX NSCLC = tested on: EKVX NSCLC
HCC-2998 colon = tested on: HCC-2998 colon
HCT-116 colon = tested on: HCT-116 colon
HCT-15 colon = tested on: HCT-15 colon
HL-60(TB) leukemia = tested on: HL-60(TB) leukemia
HOP-62 NSCLC = tested on: HOP-62 NSCLC
HOP-92 NSCLC = tested on: HOP-92 NSCLC
HS 578T breast = tested on: HS 578T breast
HT29 colon = tested on: HT29 colon
IGROV1 ovarian = tested on: IGROV1 ovarian
K-562 leukemia = tested on: K-562 leukemia
KM12 colon = tested on: KM12 colon
LOX IMVI melanoma = tested on: LOX IMVI melanoma
M14 melanoma = tested on: M14 melanoma
MALME-3M melanoma = tested on: MALME-3M melanoma
MCF7 breast = tested on: MCF7 breast
MDA-MB-231 breast = tested on: MDA-MB-231 breast
MDA-MB-435 = tested on: MDA-MB-435
MOLT-4 leukemia = tested on: MOLT-4 leukemia
NCI-H226 lung = tested on: NCI-H226 lung
NCI-H23 lung = tested on: NCI-H23 lung
NCI-H460 lung = tested on: NCI-H460 lung
NCI-H522 lung = tested on: NCI-H522 lung
NCI/ADR-RES ovarian = tested on: NCI/ADR-RES ovarian
OVCAR-3 ovarian = tested on: OVCAR-3 ovarian
OVCAR-4 ovarian = tested on: OVCAR-4 ovarian
OVCAR-5 ovarian = tested on: OVCAR-5 ovarian
OVCAR-8 ovarian = tested on: OVCAR-8 ovarian
PC-3 prostate = tested on: PC-3 prostate
RPMI-8226 leukemia = tested on: RPMI-8226 leukemia
RXF 393 renal = tested on: RXF 393 renal
SF-268 CNS = tested on: SF-268 CNS
SF-295 CNS = tested on: SF-295 CNS
SF-539 CNS = tested on: SF-539 CNS
SK-MEL-2 melanoma = tested on: SK-MEL-2 melanoma
SK-MEL-28 melanoma = tested on: SK-MEL-28 melanoma
SK-MEL-5 melanoma = tested on: SK-MEL-5 melanoma
SK-OV-3 ovarian = tested on: SK-OV-3 ovarian
SN12C renal = tested on: SN12C renal
SNB-19 CNS = tested on: SNB-19 CNS
SNB-75 CNS = tested on: SNB-75 CNS
SR leukemia = tested on: SR leukemia
SW-620 colon = tested on: SW-620 colon
T-47D breast = tested on: T-47D breast
TK-10 renal = tested on: TK-10 renal
U251 CNS = tested on: U251 CNS
UACC-257 melanoma = tested on: UACC-257 melanoma
UACC-62 melanoma = tested on: UACC-62 melanoma
UO-31 renal = tested on: UO-31 renal

## C=C(C)C(=O)O[C@H]1C[C@@]2(C)OC(=CC2=O)/C(CO)=C\[C@H]2OC(=O)C(=C)[C@H]12
786-0 renal
  GI50: 0.0652 µM
  TGI: 0.144 µM
A498 renal
  GI50: 0.565 µM
  TGI: 1.29 µM
A549 NSCLC
  GI50: 0.84 µM
  TGI: > 3.33 µM
ACHN renal
  GI50: 0.0612 µM
  TGI: 0.228 µM
BT-549 breast
  GI50: 0.0928 µM
  TGI: 0.292 µM
CAKI-1 renal
  GI50: 0.0879 µM
  TGI: 0.301 µM
CCRF-CEM leukemia
  GI50: 0.0274 µM
  TGI: 0.259 µM
COLO 205 colon
  GI50: 0.0327 µM
  TGI: 0.0954 µM
DU-145 prostate
  GI50: 0.12 µM
  TGI: 0.673 µM
EKVX NSCLC
  GI50: 0.137 µM
  TGI: 1.07 µM
HCC-2998 colon
  GI50: 0.216 µM
  TGI: 0.535 µM
HCT-116 colon
  GI50: 0.0604 µM
  TGI: 0.163 µM
HCT-15 colon
  GI50: 0.0703 µM
  TGI: 0.223 µM
HL-60(TB) leukemia
  GI50: 0.0677 µM
  TGI: 0.189 µM
HOP-62 NSCLC
  GI50: 0.654 µM
  TGI: 2.35 µM
HOP-92 NSCLC
  GI50: 0.0726 µM
  TGI: 0.173 µM
HS 578T breast
  GI50: 0.294 µM
  TGI: > 3.33 µM
HT29 colon
  GI50: 0.112 µM
  TGI: 0.356 µM
IGROV1 ovarian
  GI50: 0.145 µM
  TGI: 0.562 µM
K-562 leukemia
  GI50: 0.0946 µM
  TGI: 0.621 µM
KM12 colon
  GI50: 0.509 µM
  TGI: 1.12 µM
LOX IMVI melanoma
  GI50: 0.0533 µM
  TGI: 0.106 µM
M14 melanoma
  GI50: 0.0723 µM
  TGI: 0.178 µM
MALME-3M melanoma
  GI50: 0.0708 µM
  TGI: 0.203 µM
MCF7 breast
  GI50: 0.0861 µM
  TGI: 0.418 µM
MDA-MB-231 breast
  GI50: 0.0794 µM
  TGI: 0.206 µM
MDA-MB-435
  GI50: 0.0664 µM
  TGI: 0.146 µM
MOLT-4 leukemia
  GI50: 0.0802 µM
  TGI: 0.265 µM
NCI-H226 lung
  GI50: 0.0685 µM
  TGI: 0.172 µM
NCI-H23 lung
  GI50: 0.153 µM
  TGI: 0.421 µM
NCI-H460 lung
  GI50: 0.424 µM
  TGI: 2.07 µM
NCI-H522 lung
  GI50: 0.00773 µM
  TGI: 0.0245 µM
NCI/ADR-RES ovarian
  GI50: 0.224 µM
  TGI: > 3.33 µM
OVCAR-3 ovarian
  GI50: 0.0552 µM
  TGI: 0.149 µM
OVCAR-4 ovarian
  GI50: 0.151 µM
  TGI: 0.652 µM
OVCAR-5 ovarian
  GI50: 0.0848 µM
  TGI: 0.226 µM
OVCAR-8 ovarian
  GI50: 0.115 µM
  TGI: > 1.54 µM
PC-3 prostate
  GI50: 0.19 µM
  TGI: 0.985 µM
RPMI-8226 leukemia
  GI50: 0.0809 µM
  TGI: 0.229 µM
RXF 393 renal
  GI50: 0.0576 µM
  TGI: 0.12 µM
SF-268 CNS
  GI50: 0.168 µM
  TGI: 0.836 µM
SF-295 CNS
  GI50: 0.575 µM
  TGI: 1.5 µM
SF-539 CNS
  GI50: 0.088 µM
  TGI: 0.287 µM
SK-MEL-2 melanoma
  GI50: 0.12 µM
  TGI: 0.49 µM
SK-MEL-28 melanoma
  GI50: 0.0661 µM
  TGI: 0.148 µM
SK-MEL-5 melanoma
  GI50: 0.318 µM
  TGI: 1.23 µM
SK-OV-3 ovarian
  GI50: 1.19 µM
  TGI: > 3.33 µM
SN12C renal
  GI50: 0.114 µM
  TGI: > 1.23 µM
SNB-19 CNS
  GI50: 0.937 µM
  TGI: > 3.33 µM
SNB-75 CNS
  GI50: 0.132 µM
  TGI: 1.7 µM
SR leukemia
  GI50: 0.0437 µM
  TGI: 0.249 µM
SW-620 colon
  GI50: 0.0521 µM
  TGI: 0.147 µM
T-47D breast
  GI50: 0.0729 µM
  TGI: 0.588 µM
TK-10 renal
  GI50: 0.0573 µM
  TGI: 0.127 µM
U251 CNS
  GI50: 0.159 µM
  TGI: 0.579 µM
UACC-257 melanoma
  GI50: 0.074 µM
  TGI: 0.213 µM
UACC-62 melanoma
  GI50: 0.0569 µM
  TGI: 0.123 µM
UO-31 renal
  GI50: 0.0685 µM
  TGI: 0.177 µM

## O=C1c2c(c3c4cc(O)ccc4oc3c3[nH]c4ccccc4c23)C(=O)N1O
786-0 renal
  GI50: 0.752 µM
  TGI: 6.62 µM
A498 renal
  GI50: 3.16 µM
  TGI: 9.48 µM
A549 NSCLC
  GI50: 3.29 µM
  TGI: 18.3 µM
ACHN renal
  GI50: 0.36 µM
  TGI: 1.76 µM
BT-549 breast
  GI50: 0.423 µM
  TGI: 1.49 µM
CAKI-1 renal
  GI50: 0.787 µM
  TGI: 3.74 µM
CCRF-CEM leukemia
  GI50: 0.277 µM
  TGI: 9.86 µM
COLO 205 colon
  GI50: 1.8 µM
  TGI: 9.36 µM
DU-145 prostate
  GI50: 0.626 µM
  TGI: 11.2 µM
EKVX NSCLC
  GI50: 2.08 µM
  TGI: 8.04 µM
HCC-2998 colon
  GI50: 1.35 µM
  TGI: 3.59 µM
HCT-116 colon
  GI50: 1.09 µM
  TGI: 2.81 µM
HCT-15 colon
  GI50: 1.45 µM
  TGI: 7.19 µM
HL-60(TB) leukemia
  GI50: 0.46 µM
  TGI: 7.83 µM
HOP-62 NSCLC
  GI50: 0.721 µM
  TGI: 4.47 µM
HOP-92 NSCLC
  GI50: 1.14 µM
  TGI: 4.6 µM
HS 578T breast
  GI50: 1.46 µM
  TGI: 5.76 µM
HT29 colon
  GI50: 1.6 µM
  TGI: 3.8 µM
IGROV1 ovarian
  GI50: 0.724 µM
  TGI: 2.93 µM
K-562 leukemia
  GI50: 0.428 µM
  TGI: 13.9 µM
KM12 colon
  GI50: 1.91 µM
  TGI: 5.78 µM
LOX IMVI melanoma
  GI50: 0.258 µM
  TGI: 1.02 µM
M14 melanoma
  GI50: 0.371 µM
  TGI: 3.87 µM
MALME-3M melanoma
  GI50: 0.851 µM
  TGI: 5.08 µM
MCF7 breast
  GI50: 0.323 µM
  TGI: 5.21 µM
MDA-MB-231 breast
  GI50: 1.18 µM
  TGI: 4.71 µM
MDA-MB-435
  GI50: 0.627 µM
  TGI: 2.75 µM
MOLT-4 leukemia
  GI50: 0.32 µM
  TGI: 1.34 µM
NCI-H226 lung
  GI50: 1.32 µM
  TGI: 5.01 µM
NCI-H23 lung
  GI50: 0.411 µM
  TGI: 2.25 µM
NCI-H460 lung
  GI50: 0.414 µM
  TGI: 2.89 µM
NCI-H522 lung
  GI50: 0.22 µM
  TGI: 1.22 µM
NCI/ADR-RES ovarian
  GI50: 1.57 µM
  TGI: 29.7 µM
OVCAR-3 ovarian
  GI50: 1.57 µM
  TGI: 5.23 µM
OVCAR-4 ovarian
  GI50: 2.17 µM
  TGI: 10.7 µM
OVCAR-5 ovarian
  GI50: 2.77 µM
  TGI: 9.3 µM
OVCAR-8 ovarian
  GI50: 0.82 µM
  TGI: 10.7 µM
PC-3 prostate
  GI50: 0.812 µM
  TGI: 5.55 µM
RPMI-8226 leukemia
  GI50: 1.41 µM
  TGI: 8.01 µM
RXF 393 renal
  GI50: 0.872 µM
  TGI: 2.26 µM
SF-268 CNS
  GI50: 0.553 µM
  TGI: 4.27 µM
SF-295 CNS
  GI50: 0.488 µM
  TGI: 5.58 µM
SF-539 CNS
  GI50: 0.315 µM
  TGI: 1.26 µM
SK-MEL-2 melanoma
  GI50: 1.38 µM
  TGI: 3.08 µM
SK-MEL-28 melanoma
  GI50: 1.15 µM
  TGI: 5.46 µM
SK-MEL-5 melanoma
  GI50: 0.275 µM
  TGI: 0.815 µM
SK-OV-3 ovarian
  GI50: 0.941 µM
  TGI: 3.3 µM
SN12C renal
  GI50: 0.468 µM
  TGI: 5.79 µM
SNB-19 CNS
  GI50: 0.542 µM
  TGI: 5.53 µM
SNB-75 CNS
  GI50: 1.02 µM
  TGI: 2.24 µM
SR leukemia
  GI50: 0.274 µM
  TGI: 1.93 µM
SW-620 colon
  GI50: 0.549 µM
  TGI: 7.1 µM
T-47D breast
  GI50: 0.461 µM
  TGI: 4.53 µM
TK-10 renal
  GI50: 5.18 µM
  TGI: 15.4 µM
U251 CNS
  GI50: 0.452 µM
  TGI: 12.7 µM
UACC-257 melanoma
  GI50: 1.99 µM
  TGI: 6.32 µM
UACC-62 melanoma
  GI50: 0.703 µM
  TGI: 2.4 µM
UO-31 renal
  GI50: 0.342 µM
  TGI: 1.43 µM
